In experiment [1] the target is T1, Src kinase (Homo sapiens, UniProt P12931).
T1 construct: The active full length SRC protein was purchased from Abcam; purchased Abcam
Kind of experiment: SPR-OBL phosphorylation kinetics of SRCtide by Src kinase. In kind it is biochemical. Conditions: ATP present. The text has this: Since SPR-OBL is able to record mass and charge changes at the same time, it is particularly suitable for studying complex enzymatic processes that involve multiple kinetic steps and size and charge changes. Phosphorylation is one of such reactions that includes binding of the kinase to the substrate, adding a phosphate to the substrate, and unbinding of the kinase, where each step accompanies mass or charge change. Despite the importance of phosphorylation in many basic cellular signaling processes and its close relationship with various diseases and cancers, traditional techniques including fluorescence, western blot, and mass spectrometry are unable to resolve the kinetic process in real-time, and each kinetic step needs to be measured separately, limiting the measurement efficiency. In contrast, SPR-OBL can measure multiple steps of the enzyme catalytic reaction in real-time and extract several kinetic parameters in a single measurement. We studied the phosphorylation of SRCtide as an example. SRCtide that was a peptide containing 14 amino acid with the sequence GEEPLYWSFPAKKK (SEQ ID NO: 1) was modified on a streptavidin OBL, which serves as the substrate of the enzyme Src kinase. […]
where E and S are the enzyme and substrate, ES is the complex, and P is the phosphorylated product, respectively; and k denotes the kinetic constant in each step. We measured the SPR-OBL response of different concentrations of Src in the presence of ATP and the results are shown in FIG. 8b. […]
where [E0], [S0] and [P] are concentration of SRC, SRCtide and the product, respectively. The Michaelis constant (KM) and catalytic constant (k2) can be determined to be 4.4 nM and 5.5×10^−4 s^−1 by fitting the AC component (FIG. 8d) to Eq. 1. Knowing KM and k2 the association rate constant (k1) and dissociation rate constant (k−1) can be determined by fitting the DC component (FIG. 8c) to the following equations: […]
(§1) Fabrication of OBL. […] The surface coverage of streptavidin on the PEG layer was measured to be 64%, and 46% of the streptavidin could oscillate effectively. […]

Experiment [2] addresses T2, calmodulin (Homo sapiens, UniProt P0DP23).
T2 construct: purchased Sigma Aldrich
The experiment in a line: SPR-OBL equilibrium analysis of ion binding to calmodulin OBL. Conditions: equilibrium analysis of AC response, 100 times diluted PBS buffer. The text has this: Calmodulin is a calcium sensing protein that plays a central role in cell signaling, muscle contraction and cell division. We fabricated a calmodulin OBL and flowed different concentrations of Ca^2+ over the surface. The binding of Ca^2+ to calmodulin would lead to charge and conformation change of the OBL but with small mass change (FIG. 7a). […] Thus, we only measured the magnitude of the equilibrium state. […] We note that calmodulin is negatively charged, so Ca^2+ binding should decrease the amplitude of the AC signal. The increase of AC signal in FIG. 7b is due to artifacts in data processing when correcting the background charging. The raw data has decreased signal but much lower signal-to-noise ratio (not shown). Magnesium would also bind to calmodulin with a lower affinity compared with calcium.
(§2) Binding kinetics measurement.

For experiment [3], the target named is KcsA-Kv1.3. Kind of experiment: SPR-OBL binding kinetics of small molecules to KcsA-Kv1.3 nanodisc on streptavidin OBL. Conditions: AC response, 40 times diluted nanodisc buffer.
Excerpt: Unlike macromolecules that are inclined to have both mass and charge changes upon binding, small molecules are more likely to have charge change with little mass change. As such, measuring charge could be more sensitive for small molecules. To highlight this advantage of SRR-OBL and its potential for drug screening, we measured two small molecule drug candidates, compound 1 and PAP-1, binding to their target KcsA-Kv1.3, which is a chimeric membrane protein. The KcsA-Kv1.3 was encapsulated in a self-assembled phospholipid bilayer nanodisc that provides a nativelike environment for the membrane proteins to retain the structure and function. Despite the importance of membrane protein as drug targets, measuring the interaction with small molecule drug candidates has been challenging for traditional mass-sensitive technologies, due to the huge mass difference between the small molecule and the membrane protein complex. Before adding samples, 40 times diluted nanodisc buffer was flowed over the surface for 200 seconds to establish the baseline. The binding of the small molecule to KcsA-Kv1.3 nanodisc caused a charge change on the OBL, which leads to an AC response. As mentioned before, small molecule would only introduce a minor mass change. Therefore, the DC response of OBL is not obvious. […] According to a previous study that temperature would influence the binding kinetics between KcsA-Kv1.3 and small molecule due to the effect on the flexibility of lipid bilayer, we repeated the experiment under 30° C. and found the kinetic constants became (2.7±0.5)×10^4 M^−1s^−1, (1.9±0.4)×10^−2 s^−1 and 6.8±1.2×10 2 nM, as shown in FIG. 6c. The results are close to the value in literature. […] To verify the binding was specific, we performed control experiments by directly injecting compound 1 and PAP-1 to a streptavidin OBL without nanodisc at 30° C.
Fabrication of OBL. The sensor chip (a cover glass coated with 43 nm Au) was rinsed by DI water and ethanol for twice. Then it was annealed by hydrogen flame to further remove surface contaminants. To fabricate the streptavidin OBL, the chip was first dipped in a mixture of 1 mM thiol-PEG2k and 100 μM thiol-PEG10k-bioitin in 1×PBS overnight. The chip was dried with N2 and a silicone cell was mounted on the chip surface for holding solution. Next, the surface was incubated in 0.2 mg/mL streptavidin in PBS for 30 mins. The functionalized surface was carefully rinsed with PBS for 6 times. Note that the solution should not be completely removed from the cell during the rinsing process, and any air bubbles should be avoided as well, because the tethered protein could be irreversibly absorbed on the surface once exposed to air. The surface coverage of streptavidin on the PEG layer was measured to be 64%, and 46% of the streptavidin could oscillate effectively. The streptavidin OBL was later used to couple biotinylated proteins. To couple KcsA-Kv1.3 nanodisc, 70 μg/mL biotinylated KcsA-Kv1.3 nanodisc in nanodisc buffer was added to the cell and incubated for 30 min. Similarly, the biotinylated SRCtide was immobilized on the streptavidin OBL by incubating in 33 μg/mL SRCtide in kinase buffer containing 5 mM MgCl2 and 1 mM HEPES (pH 7.4) for 30 mins.
as §2

For experiment [4], the target named is T3, streptavidin OBL (Streptomyces avidinii, UniProt P22629).
T3 construct: purchased Thermo Fisher Scientific
T3 sequence (P22629 37-163 limits assumed): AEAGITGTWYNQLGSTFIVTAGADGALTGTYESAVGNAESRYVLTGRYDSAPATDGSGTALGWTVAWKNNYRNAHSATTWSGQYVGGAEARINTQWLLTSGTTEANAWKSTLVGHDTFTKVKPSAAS
Kind of experiment: Control experiment: small molecules injected to streptavidin OBL without nanodisc. In kind it is binding. Conditions: streptavidin OBL without nanodisc at 30° C.
Excerpt: Unlike macromolecules that are inclined to have both mass and charge changes upon binding, small molecules are more likely to have charge change with little mass change. As such, measuring charge could be more sensitive for small molecules. To highlight this advantage of SRR-OBL and its potential for drug screening, we measured two small molecule drug candidates, compound 1 and PAP-1, binding to their target KcsA-Kv1.3, which is a chimeric membrane protein. The KcsA-Kv1.3 was encapsulated in a self-assembled phospholipid bilayer nanodisc that provides a nativelike environment for the membrane proteins to retain the structure and function. Despite the importance of membrane protein as drug targets, measuring the interaction with small molecule drug candidates has been challenging for traditional mass-sensitive technologies, due to the huge mass difference between the small molecule and the membrane protein complex. Before adding samples, 40 times diluted nanodisc buffer was flowed over the surface for 200 seconds to establish the baseline. The binding of the small molecule to KcsA-Kv1.3 nanodisc caused a charge change on the OBL, which leads to an AC response. […]
as §1

For the compound “SRCtide: peptide containing 14 amino acid with the sequence GEEPLYWSFPAKKK (SEQ ID NO: 1), substrate of Src kinase”, the “catalytic constant (k2)” value in experiment [1] (fit of AC component to Eq. 1 (EQSS)) came out at 0.00055 s⁻¹. Also, in experiment [1] (fit of DC component), the “association rate constant (k1)” value is 1.3×10^4 and the “dissociation rate constant (k−1)” value turned out to be 2e-06 s⁻¹.
With `[Ca+2]` [Ca^2+, calcium ion], the Kd in experiment [2] was 1.9 µM.
Same read-out and setting: in the case of `[Mg+2]` [Mg^2+, Magnesium] it was 35 µM.
On to `O=c1ccc2c(OCCCCOc3ccccc3)c3ccoc3cc2o1` [PAP-1], for which, in experiment [3] (25° C.), binding was put at a Kd of 65 ± 11 µM, the ka entry is recorded as “(3.8±0.6)×10^2 M^−1 s^−1” and the kd entry is reported as “(2.3±0.1)×10^−2 s^−1”. In experiment [3] (30° C.), binding was characterised by a dissociation constant (Kd) of 210 µM, the ka entry is reported as “(4.8±0.4)×10^2 M^−1s^−1” and the kd result was “(9.6±1.1)×10^−2 s^−1”. In experiment [4], the “response on streptavidin OBL (nonspecific binding control)” value is “only small response”.

Broadly, the Kd is the equilibrium constant for the complex coming apart.

Values taken from patent US20240019429A1, “METHODS AND RELATED ASPECTS FOR DETERMINING BINDING KINETICS OF LIGANDS” (ARIZONA BOARD OF REGENTS ON BEHALF OF ARIZONA STATE …, priority 2022, published 2024).
